Results taken from patent US9765075B2, “Substituted bridged urea analogs as sirtuin modulators” (GLAXOSMITHKLINE LLC, priority 2013, dated 2017).
Where two headings read alike, the source gives them in different places.

Biological target: T1, SIRT1 (Homo sapiens, UniProt Q96EB6)
T1 sequence (Q96EB6 1-747): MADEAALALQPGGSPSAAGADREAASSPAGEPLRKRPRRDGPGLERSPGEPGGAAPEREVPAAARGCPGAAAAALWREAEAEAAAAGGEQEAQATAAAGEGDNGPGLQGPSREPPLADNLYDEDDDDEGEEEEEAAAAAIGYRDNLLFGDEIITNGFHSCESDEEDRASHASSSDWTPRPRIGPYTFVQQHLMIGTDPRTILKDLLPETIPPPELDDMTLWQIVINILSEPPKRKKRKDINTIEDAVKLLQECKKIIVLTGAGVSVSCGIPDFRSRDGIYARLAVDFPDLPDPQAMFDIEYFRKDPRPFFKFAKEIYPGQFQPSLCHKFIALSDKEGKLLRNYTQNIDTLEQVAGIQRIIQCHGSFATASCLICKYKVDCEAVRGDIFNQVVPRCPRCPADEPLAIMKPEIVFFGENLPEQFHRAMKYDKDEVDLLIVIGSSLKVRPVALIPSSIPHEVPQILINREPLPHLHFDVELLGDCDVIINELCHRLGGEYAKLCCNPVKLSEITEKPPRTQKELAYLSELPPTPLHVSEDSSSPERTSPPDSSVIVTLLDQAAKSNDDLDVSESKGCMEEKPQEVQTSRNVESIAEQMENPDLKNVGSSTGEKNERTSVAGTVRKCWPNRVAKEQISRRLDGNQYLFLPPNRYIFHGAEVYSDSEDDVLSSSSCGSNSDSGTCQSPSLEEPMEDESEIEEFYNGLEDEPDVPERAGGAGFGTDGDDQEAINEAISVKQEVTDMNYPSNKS
Test: Trp mass spectrometry assay (SIRT1 activation)
Format: biochemical
Conditions: for Emax: percent maximum fold activation of SIRT1, read-out: Tryp % Fold Act
How it was run: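 Activation is expressed as EC1.5, the concentration raising activity 50% above DMSO control, and as maximum percent of control. Mass-spec readout was OAADPR or deacetylated Trp peptide after a formic-acid-quenched 25-min, 25 °C reaction: 10 nM bacterially expressed His-SIRT1, 0.5 μM acetyl-p53-derived peptide, 120 μM NAD+, pH 7.5 HEPES with […].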

[1] = concentration of test compound that results in 150% activation of SIRT1, Trp peptide substrate
[2] = Trp mass spectrometry assay, EC1.5 = concentration giving 150% activation of SIRT1

Row | Structure (SMILES) | Tryp AVG EC1.5 (μM) [1] | Emax (Trp peptide substrate) [%] | Tryp AVG EC1.5 (μM) [2] | Emax (Trp mass spectrometry assay) [%] | Tryp AVG EC1.5 (μM) (Trp mass spectrometry assay, EC1.5 = concentration of test compound that results in 150% activation of SIRT1)
1 | O=C(Nc1cc(-c2cnco2)ccn1)N1c2nc(-c3cccc(C(F)(F)F)c3)ccc2N2CCC1CC2 [Example 595] | A (EC1.5<1 μM) | ≥ 150 | – | – | –
2 | Cc1nc(NC(=O)N2c3nc(-c4cccnc4)ccc3N3CCC[C@H]2C3)sc1C [Example 466] | B (EC1.5 1-25 μM) | ≥ 150 | – | – | –
3 | CC(C)(C)OC(=O)NCCCc1cc(NC(=O)N2c3nc(-c4cccc(C(F)(F)F)c4)ccc3N3CC[C@H]2C3)cc(-c2cnco2)c1 [Example 759] | – | – | B (EC1.5 1-25 μM) | ≥ 150 | –
4 | COc1ccc(-c2ccc3c(n2)N(C(=O)Nc2ccccn2)[C@H]2CCN3C2)cn1 [Example 342] | B (EC1.5 1-25 μM) | ≥ 150 | – | – | –
5 | Cc1cc(C)nc(NC(=O)N2c3nc(N4CCCC(C(F)(F)F)C4)ccc3N3CCC[C@H]2C3)c1 (stereo partly shown) [Example 287] | B (EC1.5 1-25 μM) | ≥ 150 | – | – | –
6 | COc1ncc(-c2ccc3c(n2)N(C(=O)Nc2cnccn2)[C@H]2CCN3C2)c(OC)n1 [Example 398] | B (EC1.5 1-25 μM) | ≥ 150 | – | – | –
7 | CC(C)NC(=O)N1c2nc(-c3cccc(C(F)(F)F)c3)ccc2N2CC[C@H]1C2 [Example 51] | – | – | – | ≥ 150 | –
8 | O=C(Nc1cncc(F)c1)N1c2nc(N3CCCC(C(F)(F)F)C3)ccc2N2CCC[C@H]1C2 (stereo partly shown) [Example 290] | A (EC1.5<1 μM) | ≥ 150 | – | – | –
9 | Cc1n[nH]c(C)c1-c1ccc2c(n1)N(C(=O)Nc1cccnc1)[C@H]1CCN2C1 [Example 525] | B (EC1.5 1-25 μM) | ≥ 150 | – | – | –
10 | O=C(Nc1cccnc1)N1c2nc(-c3cccc(Cl)c3)ccc2N2CCC[C@H]1C2 [Example 407] | A (EC1.5<1 μM) | ≥ 150 | – | – | –
11 | C#CCNc1nccc(NC(=O)N2c3nc(-c4ccc(C5(C(F)(F)F)N=N5)cc4)ccc3N3CC[C@H]2C3)n1 [Example 805] | – | – | B (EC1.5 1-25 μM) | ≥ 150 | –
12 | O=C(Nc1cccc(C2(C(F)(F)F)N=N2)c1)N1c2nc(-c3cccc(C(F)(F)F)c3)ccc2N2CC[C@H]1C2 [Example 315] | B (EC1.5 1-25 μM) | ≥ 150 | – | – | –
13 | COc1cc(NC(=O)N2c3nc(-c4ccnc(C(F)(F)F)c4)ccc3N3CC[C@H]2C3)ncn1 [Example 133] | – | – | – | ≥ 150 | A (EC1.5<1 μM)
14 | CC(C)(C)OC(=O)N1CCc2ccc(NC(=O)N3c4nc(-c5cccc(C(F)(F)F)c5)ccc4N4CC[C@H]3C4)cc2C1 [Example 609] | B (EC1.5 1-25 μM) | ≥ 150 | – | – | –
15 | COC(=O)N1CCCN(c2ccc3c(n2)N(C(=O)Nc2ccncn2)[C@H]2CCCN3C2)CC1 [Example 446] | B (EC1.5 1-25 μM) | ≥ 150 | – | – | –
16 | O=C(Nc1cncnc1)N1c2nc(-c3cccc(C(F)(F)F)c3)ccc2N2CCC[C@H]1C2 [Example 38] | – | – | – | ≥ 150 | –
17 | O=C(Nc1ccc(Oc2ccccc2)cc1)N1c2nc(-c3cccc(C(F)(F)F)c3)ccc2N2CC[C@H]1C2 [Example 641] | – | – | C (EC1.5>25 μM) | < 150 | –
18 | O=C(Nc1cncc(F)c1)N1c2nc(N3CC[C@H](F)C3)ccc2S(=O)(=O)N2CC[C@H]1C2 [Example 469] | C (EC1.5>25 μM) | < 150 | – | – | –
19 | O=C(Nc1cccnn1)N1c2nc(-c3cccc(F)c3)ccc2N2CC[C@H]1C2 [Example 58] | – | – | – | ≥ 150 | –
20 | O=C(Nc1ccncc1)N1c2nc(-c3cccc(Cl)c3)ccc2N2CCC[C@H]1C2 [Example 409] | A (EC1.5<1 μM) | ≥ 150 | – | – | –
21 | O=C(Nc1cccc(-c2cnco2)n1)N1c2nc(-c3cncc(F)c3)ccc2N2CC[C@H]1C2 [Example 739] | – | – | A (EC1.5<1 μM) | ≥ 150 | –
22 | O=C(Nc1cncc(F)c1)N1c2nc(-c3cccc(C(F)(F)F)c3)ccc2N2C[C@@H](O)[C@H]1C2 [Example 630] | – | – | A (EC1.5<1 μM) | ≥ 150 | –
23 | O=C1CN2C[C@H]1N(C(=O)Nc1ccccn1)c1nc(-c3cccc(C(F)(F)F)c3)ccc12 [Example 620] | B (EC1.5 1-25 μM) | ≥ 150 | – | – | –
